Measurements: patent US20250122183A1 (Pfizer Inc., priority 2023, published 2025)
Like-named read-outs stand apart in the source and are kept apart here.

How the values were obtained:
Type in all cases: biochemical
Conditions in all cases: replicate number in parentheses
[1] = biological target: KAT7+JADE1+EAF6+ING5 4 protein complex (Homo sapiens (Human), UniProt O95251); assay: KAT7 JADE1 assay (SAMDI-MS acetylation of H3 1-21 peptide)
KAT6A Full length enzyme = KAT6A Full length enzyme (Homo sapiens (Human), UniProt Q92794); assay: KAT6A assay (SAMDI-MS acetylation of H3 1-21 peptide)
Sequence of KAT6A Full length enzyme (Q92794 other isoform, or with tags, fused parts or gaps): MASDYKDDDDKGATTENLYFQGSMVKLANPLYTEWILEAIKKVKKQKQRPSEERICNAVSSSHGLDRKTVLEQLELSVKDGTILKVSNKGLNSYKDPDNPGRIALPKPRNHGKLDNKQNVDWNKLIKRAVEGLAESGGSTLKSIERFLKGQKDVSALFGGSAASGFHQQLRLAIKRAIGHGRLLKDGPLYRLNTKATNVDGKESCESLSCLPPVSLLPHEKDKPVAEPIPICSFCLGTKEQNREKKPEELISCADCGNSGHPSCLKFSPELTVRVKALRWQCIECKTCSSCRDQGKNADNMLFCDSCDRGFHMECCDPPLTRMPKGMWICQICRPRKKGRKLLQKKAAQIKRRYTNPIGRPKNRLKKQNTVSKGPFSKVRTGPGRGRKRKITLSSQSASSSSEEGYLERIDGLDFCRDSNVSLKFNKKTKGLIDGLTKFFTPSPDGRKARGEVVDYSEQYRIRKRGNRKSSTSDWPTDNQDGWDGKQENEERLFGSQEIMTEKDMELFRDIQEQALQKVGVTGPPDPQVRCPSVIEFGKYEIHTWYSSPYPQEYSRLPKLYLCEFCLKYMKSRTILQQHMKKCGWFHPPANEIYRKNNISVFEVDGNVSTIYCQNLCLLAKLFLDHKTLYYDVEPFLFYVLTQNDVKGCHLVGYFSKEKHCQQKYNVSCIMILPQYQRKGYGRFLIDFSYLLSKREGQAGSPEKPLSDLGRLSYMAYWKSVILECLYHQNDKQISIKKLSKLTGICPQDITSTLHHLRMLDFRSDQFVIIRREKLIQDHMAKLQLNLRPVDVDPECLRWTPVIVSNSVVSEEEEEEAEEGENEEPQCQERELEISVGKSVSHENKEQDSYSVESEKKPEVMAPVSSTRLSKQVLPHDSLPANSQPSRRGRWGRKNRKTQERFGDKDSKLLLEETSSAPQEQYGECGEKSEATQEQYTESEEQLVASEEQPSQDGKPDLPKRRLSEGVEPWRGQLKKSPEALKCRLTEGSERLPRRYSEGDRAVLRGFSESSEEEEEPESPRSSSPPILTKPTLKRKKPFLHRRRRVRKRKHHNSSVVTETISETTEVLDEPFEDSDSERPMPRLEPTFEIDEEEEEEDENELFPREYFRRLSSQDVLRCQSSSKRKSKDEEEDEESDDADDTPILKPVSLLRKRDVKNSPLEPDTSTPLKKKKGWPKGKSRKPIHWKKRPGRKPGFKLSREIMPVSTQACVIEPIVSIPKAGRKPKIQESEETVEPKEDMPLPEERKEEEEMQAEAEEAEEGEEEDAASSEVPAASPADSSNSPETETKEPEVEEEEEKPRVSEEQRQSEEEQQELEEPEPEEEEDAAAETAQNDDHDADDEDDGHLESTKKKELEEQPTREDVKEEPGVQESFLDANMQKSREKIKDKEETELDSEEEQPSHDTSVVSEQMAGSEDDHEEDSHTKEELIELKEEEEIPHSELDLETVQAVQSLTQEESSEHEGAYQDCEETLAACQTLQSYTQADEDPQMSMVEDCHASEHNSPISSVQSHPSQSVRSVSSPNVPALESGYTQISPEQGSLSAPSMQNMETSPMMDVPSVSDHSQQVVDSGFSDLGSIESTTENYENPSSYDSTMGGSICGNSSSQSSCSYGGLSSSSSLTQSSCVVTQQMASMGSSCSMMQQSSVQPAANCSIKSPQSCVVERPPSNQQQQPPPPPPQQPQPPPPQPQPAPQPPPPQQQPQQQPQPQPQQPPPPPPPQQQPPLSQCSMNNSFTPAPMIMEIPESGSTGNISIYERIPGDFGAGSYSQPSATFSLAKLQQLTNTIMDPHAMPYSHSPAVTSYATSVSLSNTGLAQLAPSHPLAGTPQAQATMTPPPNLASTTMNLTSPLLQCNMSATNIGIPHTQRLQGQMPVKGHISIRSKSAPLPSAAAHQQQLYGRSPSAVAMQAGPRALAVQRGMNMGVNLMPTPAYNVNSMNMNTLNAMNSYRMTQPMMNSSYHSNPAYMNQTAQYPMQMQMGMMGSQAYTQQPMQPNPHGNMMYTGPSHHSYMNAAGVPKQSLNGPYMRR

KAT8 Full length enzyme = KAT8 Full length enzyme (Homo sapiens (Human), UniProt Q9H7Z6); assay: KAT8 assay (SAMDI-MS acetylation of H3 1-21 peptide)
Sequence of KAT8 Full length enzyme (Q9H7Z6 whole entry): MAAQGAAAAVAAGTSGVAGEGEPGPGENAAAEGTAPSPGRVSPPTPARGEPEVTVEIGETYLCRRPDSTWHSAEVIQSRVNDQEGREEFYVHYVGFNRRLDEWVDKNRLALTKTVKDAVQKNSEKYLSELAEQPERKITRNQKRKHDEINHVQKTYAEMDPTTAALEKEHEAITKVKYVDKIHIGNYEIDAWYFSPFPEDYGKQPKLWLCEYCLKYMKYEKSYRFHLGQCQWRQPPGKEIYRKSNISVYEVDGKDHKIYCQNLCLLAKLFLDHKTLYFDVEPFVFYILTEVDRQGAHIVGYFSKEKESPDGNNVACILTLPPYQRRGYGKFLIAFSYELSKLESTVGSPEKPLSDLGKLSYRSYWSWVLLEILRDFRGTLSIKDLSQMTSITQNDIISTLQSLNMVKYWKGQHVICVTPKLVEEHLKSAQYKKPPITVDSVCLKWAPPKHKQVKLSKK

[2] = Morrison equation fit, read-out: KAT7 JADE1 Ki (nM) (replicate number)
[3] = Morrison equation fit, read-out: KAT6A Ki (nM) (replicate number)
[4] = Morrison equation fit, read-out: KAT8 Ki (nM) (replicate number)
[5] = read-out: KAT7 JADE1 Ki (nM) (replicate)
[6] = read-out: KAT6A Ki (nM) (replicate)
[7] = read-out: KAT8 Ki (nM) (replicate)

| Compound | Ki [1, 2] [nM] | Ki (KAT6A Full length enzyme; [3]) [nM] | Ki (KAT8 Full length enzyme; [4]) [nM] | Ki [1, 5] [nM] | Ki (KAT6A Full length enzyme; [6]) [nM] | Ki (KAT8 Full length enzyme; [7]) [nM] |
| --- | --- | --- | --- | --- | --- | --- |
| COc1cc2c(NS(=O)(=O)c3c(OC)cc(C4CCCN(C)C4)cc3OC)noc2cc1Nc1cc(C2CC2)n[nH]1 (single isomer, unassigned) [Example 149, N-{6-[(3-cyclopropyl-1H-pyrazol-5-yl)amino]-5-methoxy-1,2-benzoxazol-3-yl}-2,6-dimethoxy-4-(1-methylpiperidin-3-yl)benzene-1-sulfonamide] | 5.3 | 0.6 | 19000 |  |  |  |
| COc1cc2c(NS(=O)(=O)c3c(OC)cc(C4CCCN(C)C4)cc3OC)noc2cc1Nc1cc(C2CC2)n[nH]1 (single isomer, unassigned) [Example 150, N-{6-[(3-cyclopropyl-1 H-pyrazol-5-yl)amino]-5-methoxy-1,2-benzoxazol-3-yl}-2,6-dimethoxy-4-(1-methylpiperidin-3-yl)benzene-1-sulfonamide] | 6.3 | 0.8 | 10300 |  |  |  |
| COc1cc2c(NS(=O)(=O)c3c(OC)cc(C(C)OC)cc3OC)noc2cc1Nc1cc(C2CC2)[nH]n1 (single isomer, unassigned) [Example 272, N-{6-[(5-cyclopropyl-1H-pyrazol-3-yl)amino]-5-methoxy-1,2-benzoxazol-3-yl}-2,6-dimethoxy-4-(1-methoxyethyl)benzene-1-sulfonamide] |  |  |  | 5 | 0.7 | 2650 |
| COc1cc2c(NS(=O)(=O)c3c(OC)cc(C(C)OC)cc3OC)noc2cc1Nc1cc(C2CC2)[nH]n1 (single isomer, unassigned) [Example 273, N-{6-[(5-cyclopropyl-1H-pyrazol-3-yl)amino]-5-methoxy-1,2-benzoxazol-3-yl}-2,6-dimethoxy-4-(1-methoxyethyl)benzene-1-sulfonamide] |  |  |  | 4.7 | 0.6 | 2020 |
| COc1cc2c(NS(=O)(=O)c3c(OC)cc(CN(C)C)cc3OC)noc2cc1Nc1cc(C2CC2)n[nH]1 [Example 144, N-{6-[(3-cyclopropyl-1 H-pyrazol-5-yl)amino]-5-methoxy-1,2-benzoxazol-3-yl}-4-[(dimethylamino)methyl]-2,6-dimethoxybenzene-1-sulfonamide] | 10.2 | 1.8 | 2780 |  |  |  |
| COc1cc2c(NS(=O)(=O)c3c(OC)cc([C@@H]4COCCO4)cc3OC)noc2cc1Nc1cc(C2CC2)n[nH]1 [Example 145] | 9.2 | 1.8 | 1510 |  |  |  |
| COc1cc2c(NS(=O)(=O)c3c(OC)cc(-c4nccc(C)n4)cc3OC)noc2cc1Nc1cc(C2CC2)n[nH]1 [Example 214, N-{6-[(3-cyclopropyl-1H-pyrazol-5-yl)amino]-5-methoxy-1,2-benzoxazol-3-yl}-2,6-dimethoxy-4-(4-methylpyrimidin-2-yl)benzene-1-sulfonamide] | 4.3 | 0.7 | 1720 |  |  |  |
| COc1cc2c(NS(=O)(=O)c3c(OC)cc(-c4ccc(C)cn4)cc3OC)noc2cc1Nc1cc(C2CC2)n[nH]1 [Example 215, N-{6-[(3-cyclopropyl-1H-pyrazol-5-yl)amino]-5-methoxy-1,2-benzoxazol-3-yl}-2,6-dimethoxy-4-(5-methylpyridin-2-yl)benzene-1-sulfonamide] | 4.2 | 0.4 | 994 |  |  |  |
| COc1cc2c(NS(=O)(=O)c3c(OC)cc(-c4cccn(C)c4=O)cc3OC)noc2cc1Nc1cc(C2CC2)n[nH]1 [Example 221, N-{6-[(3-cyclopropyl-1H-pyrazol-5-yl)amino]-5-methoxy-1,2-benzoxazol-3-yl}-2,6-dimethoxy-4-(1-methyl-2-oxo-1,2-dihydropyridin-3-yl)benzene-1-sulfonamide] | 6.2 | 0.7 | 1490 |  |  |  |
| CCc1cc(Nc2cc3onc(NS(=O)(=O)c4c(OC)cc(-c5cccc(C)n5)cc4OC)c3cc2OC)[nH]n1 [Example 231, N-{6-[(3-ethyl-1H-pyrazol-5-yl)amino]-5-methoxy-1,2-benzoxazol-3-yl}-2,6-dimethoxy-4-(6-methylpyridin-2-yl)benzene-1-sulfonamide] | 8.8 | 1.1 | 859 |  |  |  |
| CCc1cc(Nc2cc3onc(NS(=O)(=O)c4c(OC)cc(-c5cnc(C)cn5)cc4OC)c3cc2OC)[nH]n1 [Example 232, N-{6-[(3-ethyl-1H-pyrazol-5-yl)amino]-5-methoxy-1,2-benzoxazol-3-yl}-2,6-dimethoxy-4-(5-methylpyrazin-2-yl)benzene-1-sulfonamide] | 6.4 | 0.6 | 2620 |  |  |  |
| CCc1cc(Nc2cc3onc(NS(=O)(=O)c4c(OC)cc(-c5nccc(C)n5)cc4OC)c3cc2OC)[nH]n1 [Example 233, N-{6-[(3-ethyl-1H-pyrazol-5-yl)amino]-5-methoxy-1,2-benzoxazol-3-yl}-2,6-dimethoxy-4-(4-methylpyrimidin-2-yl)benzene-1-sulfonamide] | 8.9 | 1.7 | 2000 |  |  |  |
| CCc1cc(Nc2cc3onc(NS(=O)(=O)c4c(OC)cc(-c5ncc(C)cn5)cc4OC)c3cc2OC)[nH]n1 [Example 234, N-{6-[(3-ethyl-1H-pyrazol-5-yl)amino]-5-methoxy-1,2-benzoxazol-3-yl}-2,6-dimethoxy-4-(5-methylpyrimidin-2-yl)benzene-1-sulfonamide] | 8.5 | 1 | 1680 |  |  |  |
| CCc1cc(Nc2cc3onc(NS(=O)(=O)c4c(OC)cc(-c5ccc(C)nn5)cc4OC)c3cc2OC)[nH]n1 [Example 235, N-{6-[(3-ethyl-1H-pyrazol-5-yl)amino]-5-methoxy-1,2-benzoxazol-3-yl}-2,6-dimethoxy-4-(6-methylpyridazin-3-yl)benzene-1-sulfonamide] | 6 | 0.8 | 2360 |  |  |  |
| CCc1cc(Nc2cc3onc(NS(=O)(=O)c4c(OC)cc(-c5ccc(C)cn5)cc4OC)c3cc2OC)[nH]n1 [Example 236, N-{6-[(3-ethyl-1H-pyrazol-5-yl)amino]-5-methoxy-1,2-benzoxazol-3-yl}-2,6-dimethoxy-4-(5-methylpyridin-2-yl)benzene-1-sulfonamide] | 3.5 | 0.4 | 364 |  |  |  |
| COc1cc2c(NS(=O)(=O)c3c(OC)cc(N4CCCC4=O)cc3OC)noc2cc1Nc1cc(C2CC2)n[nH]1 [Example 246, N-{6-[(3-cyclopropyl-1H-pyrazol-5-yl)amino]-5-methoxy-1,2-benzoxazol-3-yl}-2,6-dimethoxy-4-(2-oxopyrrolidin-1-yl)benzene-1-sulfonamide] |  |  |  | 6.4 | 1 | 1840 |
| COc1cc2c(NS(=O)(=O)c3c(OC)cc(C(=O)N4CC[C@@H](F)C4)cc3OC)noc2cc1Nc1cc(C2CC2)n[nH]1 [Example 258, N-{6-[(3-cyclopropyl-1H-pyrazol-5-yl)amino]-5-methoxy-1,2-benzoxazol-3-yl}-4-[(3R)-3-fluoropyrrolidine-1-carbonyl]-2,6-dimethoxybenzene-1-sulfonamide] |  |  |  | 5.9 | 1 |  |
| COc1cc2c(NS(=O)(=O)c3c(OC)cc(C(=O)N4CCC[C@@H](F)C4)cc3OC)noc2cc1Nc1cc(C2CC2)n[nH]1 [Example 260, N-{6-[(3-cyclopropyl-1H-pyrazol-5-yl)amino]-5-methoxy-1,2-benzoxazol-3-yl}-4-[(3R)-3-fluoropiperidine-1-carbonyl]-2,6-dimethoxybenzene-1-sulfonamide] |  |  |  | 6.7 | 1 |  |
| COc1cc2c(NS(=O)(=O)c3c(OC)cc(C(=O)N4CCC[C@H](F)C4)cc3OC)noc2cc1Nc1cc(C2CC2)n[nH]1 [Example 261, N-{6-[(3-cyclopropyl-1H-pyrazol-5-yl)amino]-5-methoxy-1,2-benzoxazol-3-yl}-4-[(3S)-3-fluoropiperidine-1-carbonyl]-2,6-dimethoxybenzene-1-sulfonamide] |  |  |  | 6.7 | 1.1 |  |
| COc1cc2c(NS(=O)(=O)c3c(OC)cc(C(=O)N4CC(F)C4)cc3OC)noc2cc1Nc1cc(C2CC2)n[nH]1 [Example 262, N-{6-[(3-cyclopropyl-1H-pyrazol-5-yl)amino]-5-methoxy-1,2-benzoxazol-3-yl}-4-(3-fluoroazetidine-1-carbonyl)-2,6-dimethoxybenzene-1-sulfonamide] |  |  |  | 8.1 | 1 |  |
| COc1cc2c(NS(=O)(=O)c3c(OC)cc(C(=O)N4CCC(F)(F)CC4)cc3OC)noc2cc1Nc1cc(C2CC2)n[nH]1 [Example 263, N-{6-[(3-cyclopropyl-1H-pyrazol-5-yl)amino]-5-methoxy-1,2-benzoxazol-3-yl}-4-(4,4-difluoropiperidine-1-carbonyl)-2,6-dimethoxybenzene-1-sulfonamide] |  |  |  | 9.8 | 1.4 |  |
| COc1cc2c(NS(=O)(=O)c3c(OC)cc(C(=O)N4CC(F)(F)C4)cc3OC)noc2cc1Nc1cc(C2CC2)n[nH]1 [Example 264, N-{6-[(3-cyclopropyl-1H-pyrazol-5-yl)amino]-5-methoxy-1,2-benzoxazol-3-yl}-4-(3,3-difluoroazetidine-1-carbonyl)-2,6-dimethoxybenzene-1-sulfonamide] |  |  |  | 17.6 | 2.3 |  |
| COc1cc2c(NS(=O)(=O)c3c(OC)cc(C4CCO4)cc3OC)noc2cc1Nc1cc(C2CC2)n[nH]1 (stereo not shown) [Example 276, N-{6-[(3-cyclopropyl-1H-pyrazol-5-yl)amino]-5-methoxy-1,2-benzoxazol-3-yl}-2,6-dimethoxy-4-(oxetan-2-yl)benzene-1-sulfonamide] |  |  |  | 16.8 | 1.3 |  |
| N-{6-[(3-cyclopropyl-1 H-pyrazol-5-yl)amino]-5-methoxy-1,2-benzoxazol-3-yl}-4-(4,4-difluoro-1-methylpiperidin-3-yl)-2,6-dimethoxybenzene-1-sulfonamide [Example 176] | 2.7 | 1 |  |  |  |  |
